{"source": "patent US11427533B2", "about": "“Crystalline polymorphs of bardoxolone methyl” (PLIVA HRVATSKA d.o.o., priority 2017, dated 2022)", "key": {"[1]": {"experiment": "Solubility in aqueous buffers, shaker at 37° C., filtrate by UHPLC", "assay_type": "physicochemical", "conditions": "for Concentration mg/mL (UHPLC) / solubility thermodynamic at 2 h: 150 mg/8 mL suspension; for solubility thermodynamic at 2 h: 37 °C, thermodynamic from solid, read-out: Concentration mg/mL (UHPLC); for Solubility compared with crystalline form A / Solubility compared with non-crystalline (amorphous) form B: in words", "description": "UHPLC analyses was performed on Agilent 1290 Infinity LC system with a DAD. UV spectra were recorded at 190-400 nm, with the working wavelength of 240 nm. The column used was Waters Acquity UPLC BEH Phenyl (100 mm×2.1 mm i.d., particle size 1.7 μm), at the column temperature of 50° C. Mobile phases employed for gradient elution were water with 0.1% of formic acid as mobile phase A and acetonitrile with 0.1% of formic acid as mobile phase B. Gradient conditions for the analysis were: isocratic flow from 0.0 to 0.5 min with 40% of mobile phase B; linear gradient from 40% of mobile phase B up to 90% of mobile phase B from 0.5 to 4.0 min; isocratic flow at 90% of mobile phase B from 4.0 to 4.5 min; linear gradient down to 40% of mobile phase B from 4.5 to 5.0 min and finally, reconditioning the column for 0.5 min on starting conditions. 1 μL to 10 μL of sample solution was injected at a flow rate of 0.7 mL min^−1.\nSolubility of Bardoxolone methyl form D and the patent forms in U.S. Pat. Nos. 8,309,601 and 8,088,824 were determined in aqueous buffers and water. Suspension of tested substance (150 mg/8 mL) was stirred on a shaker (200 rpm) in a closed vial at 37° C. Suspension was filtered and concentration of Bardoxolone methyl in filtrate was determined by UHPLC. Undissolved residue was analyzed by XRPD."}, "[2]": {"conditions": "as indicated in WO2010093944; cited from earlier work"}, "[3]": {"experiment": "Physical stability of Form D (pressure, heating, sauna), form checked by XRPD", "assay_type": "physicochemical", "conditions": "for XRD form after transformation by sauna (closed flask, RT): 1 day; for XRD form after pressure: 1 min", "description": "Crystalline Form D of Bardoxolone is also stable to conversion after exposure to an atmosphere containing organic solvents, for example ethylene glycol, in a closed vessel at room temperature for 24 hours). Such stability may enable the use of form D in variety of preparation methods including preparation of solid dispersion by spray drying, wet granulation etc.\nSample after being powdered in a mortar and pestle is applied directly on a silicon plate holder. The X-ray powder diffraction pattern was measured with Philips X'Pert PRO X-ray powder diffractometer, equipped with Cu irradiation source=1.54184 Å (Ångström), X'Celerator (2.022° 2θ) detector.\nThe physical stability of Form D was investigated at different conditions: in heating, under pressure and by sauna."}, "[4]": {"conditions": "buffer pH 1.2 (0.063M HCl + 2.0 g/L NaCl), 2 h at 37° C."}, "[5]": {"conditions": "buffer pH 4.5 (0.05M acetate buffer PhEur), 2 h at 37° C."}}, "note": "“Also recorded” adds a separate entry of the source. Like-named read-outs stand apart in the source and are kept apart here.", "data": [{"compound": "COC(=O)[C@]12CCC(C)(C)C[C@H]1[C@H]1C(=O)C=C3[C@]4(C)C=C(C#N)C(=O)C(C)(C)[C@@H]4CC[C@@]3(C)[C@]1(C)CC2", "note": "[Form A, Methyl-2-cyano-3,12-dioxooleana-1,9(11)-dien-28-oic acid, reference compound]", "values": [{"measurement": "Concentration mg/mL (UHPLC)", "setting": "[1]; [4]", "result": "LTQL"}, {"measurement": "Concentration mg/mL (UHPLC)", "setting": "[1]; buffer pH 1.2 (0.063M HCl + 2.0 g/L NaCl), 4 h at 37° C.", "result": "LTQL"}, {"measurement": "Concentration mg/mL (UHPLC)", "setting": "[1]; [5]", "result": "LTQL"}, {"measurement": "Oral bioavailability (in words)", "setting": "[2]", "result": "relatively low oral bioavailability"}]}, {"compound": "COC(=O)[C@]12CCC(C)(C)C[C@H]1[C@H]1C(=O)C=C3[C@]4(C)C=C(C#N)C(=O)C(C)(C)[C@@H]4CC[C@@]3(C)[C@]1(C)CC2", "note": "[Form B, Methyl-2-cyano-3,12-dioxooleana-1,9(11)-dien-28-oic acid, reference compound]", "values": [{"measurement": "solubility thermodynamic at 2 h", "setting": "[1]; HCl/NaCl buffer, pH 1.2, simulated gastric fluid, buffer pH 1.2 (0.063M HCl + 2.0 g/L NaCl), 2 h at 37° C.", "result": 0.08, "unit": "µg/mL"}, {"measurement": "solubility thermodynamic at 2 h", "setting": "[1]; acetate buffer, pH 4.5, aqueous buffer, buffer pH 4.5 (0.05M acetate buffer PhEur), 2 h at 37° C.", "result": 0.04, "unit": "µg/mL"}, {"measurement": "Oral bioavailability (in words)", "setting": "[2]", "result": "markedly superior oral bioavailability compared to Form A"}]}, {"compound": "COC(=O)[C@]12CCC(C)(C)C[C@H]1[C@H]1C(=O)C=C3[C@]4(C)C=C(C#N)C(=O)C(C)(C)[C@@H]4CC[C@@]3(C)[C@]1(C)CC2", "note": "[Form D, Methyl-2-cyano-3,12-dioxooleana-1,9(11)-dien-28-oic acid]", "values": [{"measurement": "Concentration mg/mL (UHPLC)", "setting": "[1]; [4]", "result": 0.00004, "unit": "mg/mL"}, {"measurement": "Concentration mg/mL (UHPLC)", "setting": "[1]; [5]", "result": 0.00002, "unit": "mg/mL"}, {"measurement": "Solubility compared with crystalline form A", "setting": "[1]", "result": "improved solubility"}, {"measurement": "Solubility compared with non-crystalline (amorphous) form B", "setting": "[1]", "result": "comparable solubility"}, {"measurement": "Solubility compared with crystalline form A", "setting": "[1]; listed as form D", "result": "higher"}, {"measurement": "Solubility compared with non-crystalline (amorphous) form B", "setting": "[1]; listed as form D", "result": "comparable"}, {"measurement": "XRD form after heating (open vessel)", "setting": "[3]; 100° C., 5 min", "result": "Form D"}, {"measurement": "XRD form after transformation by sauna (closed flask, RT)", "setting": "[3]; ethylene glycol", "result": "Form D"}, {"measurement": "Polymorphic stability, conversion to other forms (in words)", "setting": "[3]; pressure 1 t or 2 t 1 min, 100° C. 5 min, water sauna RT 90%-100% RH 24 hours, ethylene glycol atmosphere RT 24 hours", "result": "maintained; also recorded: resistant to conversion to any other forms"}, {"measurement": "XRD form after pressure", "setting": "[3]; pressure 1 t", "result": "Form D"}, {"measurement": "XRD form after pressure", "setting": "[3]; pressure 2 t", "result": "Form D"}, {"measurement": "XRD form after transformation by sauna (closed flask, RT)", "setting": "[3]; water", "result": "Form D"}]}]}
